The OPERA property sets (Mansouri et al. 2018)
In brackets after ≈: the same amount, converted by molar mass.

Conditions: for solubility: 25 °C

Row | Compound | logP | solubility [mM]
1 | NS(=O)(=O)c1ccc(CCCCO)cc1 | 0.57 | 64.1 (≈ 14700 µg/mL)
2 | CC(C)(O)CCS(=O)(=O)c1ccc(S(N)(=O)=O)cc1 | -0.09 | 11.4 (≈ 3500 µg/mL)
3 | COCC(=O)OCCCS(=O)(=O)c1ccc(S(N)(=O)=O)s1 | -0.14 | 
4 | COC(=O)c1cc(S(N)(=O)=O)ccc1S(=O)(=O)CCCO | -0.3 | 
5 | NS(=O)(=O)c1ccc(SCCCCCO)cc1 | 1.04 | 2.18 (≈ 600 µg/mL)
6 | NS(=O)(=O)c1ccc(SCCCO)cc1 | 0.8 | 5.66 (≈ 1400 µg/mL)
7 | COC(=O)c1cc(S(N)(=O)=O)ccc1S(=O)(=O)CCO | -0.47 | 
8 | NS(=O)(=O)c1ccc(SCCO)c(F)c1 | 0.72 | 23.9 (≈ 6000 µg/mL)
9 | COC(=O)c1cc(S(N)(=O)=O)ccc1SCCCO | 0.74 | 
10 | NS(=O)(=O)c1ccc(S(=O)(=O)CCCO)c(F)c1 | -0.41 | 22.2 (≈ 6600 µg/mL)
11 | CC(=O)OCCS(=O)(=O)c1ccc(S(N)(=O)=O)s1 | 0.11 | 
12 | NS(=O)(=O)c1ccc(SCCO)cc1 | 0.36 | 15 (≈ 3500 µg/mL)
13 | CC(=O)OCCCc1ccc(S(N)(=O)=O)cc1 | 0.98 | 
14 | CC(C)(O)CCSc1ccc(S(N)(=O)=O)cc1 | 1.4 | 1.45 (≈ 400 µg/mL)
15 | NS(=O)(=O)c1ccc(S(=O)(=O)CCCCO)c(F)c1 | -0.26 | 
16 | NS(=O)(=O)c1ccc(S(=O)(=O)CCCCO)s1 | -0.34 | 
17 | NS(=O)(=O)c1ccc(SCCCO)c([N+](=O)[O-])c1 | 0.96 | 0.342 (≈ 100 µg/mL)
18 | NS(=O)(=O)c1ccc(S(=O)(=O)CCO)cc1 | -0.85 | 24.9 (≈ 6600 µg/mL)

Row | Compound | logP | solubility [mM]
19 | NS(=O)(=O)c1ccc(SCCCO)s1 | 0.85 | 
20 | NS(=O)(=O)c1ccc(S(=O)(=O)CCCO)cc1 | -0.64 | 25.8 (≈ 7200 µg/mL)
21 | NS(=O)(=O)c1ccc(CCCCCO)cc1 | 1.04 | 10.7 (≈ 2600 µg/mL)
22 | CC(=O)OCCCS(=O)(=O)c1ccc(S(N)(=O)=O)s1 | 0.17 | 
23 | NS(=O)(=O)c1ccc(SCCO)c([N+](=O)[O-])c1 | 0.38 | 1.8 (≈ 500 µg/mL)
24 | NS(=O)(=O)c1ccc(S(=O)(=O)CCO)c(F)c1 | -0.6 | 11.6 (≈ 3300 µg/mL)
25 | CC(C)CNCCS(=O)(=O)c1ccc(S(N)(=O)=O)cc1 | 0.23 | 
26 | Nc1cc(S(N)(=O)=O)ccc1S(=O)(=O)CCCO | -0.48 | 
27 | CC(=O)OCCCCCc1ccc(S(N)(=O)=O)cc1 | 1.86 | 
28 | NS(=O)(=O)c1ccc(SCCCCO)cc1 | 0.93 | 3.06 (≈ 800 µg/mL)
29 | NS(=O)(=O)c1ccc(CCCO)cc1 | 0.17 | 92.9 (≈ 20000 µg/mL)
30 | NS(=O)(=O)c1ccc(S(=O)(=O)CCCCO)cc1 |  | 7.16 (≈ 2100 µg/mL)
31 | NS(=O)(=O)c1ccc(SCCCO)c(F)c1 | 0.99 | 3.39 (≈ 900 µg/mL)
32 | Nc1cc(S(N)(=O)=O)ccc1S(=O)(=O)CCO | -0.6 | 
33 | NS(=O)(=O)c1ccc(SCCCCO)c(F)c1 | 1.28 | 3.58 (≈ 1000 µg/mL)
34 | NS(=O)(=O)c1ccc(SCCCO)c(Cl)c1 | 1.59 | 
35 | NS(=O)(=O)c1ccc(SCCCCO)s1 | 0.95 | 34.8 (≈ 9300 µg/mL)
36 | NS(=O)(=O)c1ccc(S(=O)(=O)CCCO)s1 | -0.36 | 
